According to ChEMBL document CHEMBL4613209, “Quinolone hybrids and their anti-cancer activities: An overview” (Eur J Med Chem, 2019):

What follows are compounds tested on A549 (assay: Antiproliferative activity against human A549 cells by CCK8 assay).
Format: functional, cell-based

SMILES | IC50 [µM]
C[C@H]1COc2c(N3CCN(C)CC3)c(F)cc3c(=O)c(C(=O)OCc4cn(CCCCCCCC(=O)O)nn4)cn1c23 | 7.8 to 16.5
C[C@H]1COc2c(N3CCN(C)CC3)c(F)cc3c(=O)c(C(=O)NCc4cn(CCCCCCC(=O)O)nn4)cn1c23 | 7.8 to 16.5
C[C@H]1COc2c(N3CCN(C)CC3)c(F)cc3c(=O)c(C(=O)O)cn1c23 [LEVOFLOXACIN] | 64.2 to 100
C[C@H]1COc2c(N3CCN(C)CC3)c(F)cc3c(=O)c(C(=O)OCc4cn(CCCCCCC(=O)O)nn4)cn1c23 | 7.8 to 16.5
O=C(CCCCCCC(=O)Nc1ccccc1)NO [VORINOSTAT] | 2.9 to 6.4

Each compound was assayed on HepG2 (assay: Antiproliferative activity against human HepG2 cells by CCK8 assay).
Format: functional, cell-based

SMILES | IC50 [µM]
C[C@H]1COc2c(N3CCN(C)CC3)c(F)cc3c(=O)c(C(=O)OCc4cn(CCCCCCCC(=O)O)nn4)cn1c23 | 7.8 to 16.5
C[C@H]1COc2c(N3CCN(C)CC3)c(F)cc3c(=O)c(C(=O)NCc4cn(CCCCCCC(=O)O)nn4)cn1c23 | 7.8 to 16.5
C[C@H]1COc2c(N3CCN(C)CC3)c(F)cc3c(=O)c(C(=O)O)cn1c23 [LEVOFLOXACIN] | 64.2 to 100
C[C@H]1COc2c(N3CCN(C)CC3)c(F)cc3c(=O)c(C(=O)OCc4cn(CCCCCCC(=O)O)nn4)cn1c23 | 7.8 to 16.5

What follows are compounds tested on MCF7 (assay: Antiproliferative activity against human MCF7 cells by CCK8 assay).
Format: functional, cell-based

SMILES | IC50 [µM]
C[C@H]1COc2c(N3CCN(C)CC3)c(F)cc3c(=O)c(C(=O)OCc4cn(CCCCCCCC(=O)O)nn4)cn1c23 | 7.8 to 16.5
C[C@H]1COc2c(N3CCN(C)CC3)c(F)cc3c(=O)c(C(=O)NCc4cn(CCCCCCC(=O)O)nn4)cn1c23 | 7.8 to 16.5
C[C@H]1COc2c(N3CCN(C)CC3)c(F)cc3c(=O)c(C(=O)O)cn1c23 [LEVOFLOXACIN] | 64.2 to 100
C[C@H]1COc2c(N3CCN(C)CC3)c(F)cc3c(=O)c(C(=O)OCc4cn(CCCCCCC(=O)O)nn4)cn1c23 | 7.8 to 16.5

What follows are compounds tested on PC-3 (assay: Antiproliferative activity against human PC3 cells by CCK8 assay).
Format: functional, cell-based

SMILES | IC50 [µM]
C[C@H]1COc2c(N3CCN(C)CC3)c(F)cc3c(=O)c(C(=O)OCc4cn(CCCCCCCC(=O)O)nn4)cn1c23 | 7.8 to 16.5
C[C@H]1COc2c(N3CCN(C)CC3)c(F)cc3c(=O)c(C(=O)NCc4cn(CCCCCCC(=O)O)nn4)cn1c23 | 7.8 to 16.5
C[C@H]1COc2c(N3CCN(C)CC3)c(F)cc3c(=O)c(C(=O)O)cn1c23 [LEVOFLOXACIN] | 64.2 to 100
C[C@H]1COc2c(N3CCN(C)CC3)c(F)cc3c(=O)c(C(=O)OCc4cn(CCCCCCC(=O)O)nn4)cn1c23 | 7.8 to 16.5

What follows are compounds tested on HeLa (assay: Antiproliferative activity against human HeLa cells by CCK8 assay).
Format: functional, cell-based

SMILES | IC50 [µM]
C[C@H]1COc2c(N3CCN(C)CC3)c(F)cc3c(=O)c(C(=O)OCc4cn(CCCCCCCC(=O)O)nn4)cn1c23 | 7.8 to 16.5
C[C@H]1COc2c(N3CCN(C)CC3)c(F)cc3c(=O)c(C(=O)NCc4cn(CCCCCCC(=O)O)nn4)cn1c23 | 7.8 to 16.5
C[C@H]1COc2c(N3CCN(C)CC3)c(F)cc3c(=O)c(C(=O)O)cn1c23 [LEVOFLOXACIN] | 64.2 to 100
C[C@H]1COc2c(N3CCN(C)CC3)c(F)cc3c(=O)c(C(=O)OCc4cn(CCCCCCC(=O)O)nn4)cn1c23 | 7.8 to 16.5
O=C(CCCCCCC(=O)Nc1ccccc1)NO [VORINOSTAT] | 2.9 to 6.4

These compounds were tested on MCF-10A (assay: Antiproliferative activity against human MCF10A cells by CCK8 assay).
Format: cell-based

SMILES | IC50 [µM]
C[C@H]1COc2c(N3CCN(C)CC3)c(F)cc3c(=O)c(C(=O)OCc4cn(CCCCCCCC(=O)O)nn4)cn1c23 | > 100
C[C@H]1COc2c(N3CCN(C)CC3)c(F)cc3c(=O)c(C(=O)NCc4cn(CCCCCCC(=O)O)nn4)cn1c23 | > 100
C[C@H]1COc2c(N3CCN(C)CC3)c(F)cc3c(=O)c(C(=O)O)cn1c23 [LEVOFLOXACIN] | 25.2
C[C@H]1COc2c(N3CCN(C)CC3)c(F)cc3c(=O)c(C(=O)OCc4cn(CCCCCCC(=O)O)nn4)cn1c23 | > 100

Each compound was assayed on L1210 (assay: Cytotoxicity against mouse L1210 cells assessed as reduction in cell viability).
Format: functional, cell-based

SMILES | IC50 [µM]
CCn1cc(-c2nnc(SC/C(=N/NC(N)=S)c3ccc(F)cc3)[nH]2)c(=O)c2cc(F)c(N3CCN(C)CC3)cc21 | 2.7 to 8.6
CCn1cc(C(=O)O)c(=O)c2cc(F)c(N3CCN(C)CC3)cc21 [PEFLOXACIN] | > 100
CCn1cc(-c2nnc(SC/C(=N/NC(N)=S)c3ccc(O)cc3)[nH]2)c(=O)c2cc(F)c(N3CCN(C)CC3)cc21 | 2.7 to 8.6
CCn1cc(-c2nnc(SC/C(=N/NC(N)=S)c3ccc(O)c(OC)c3)[nH]2)c(=O)c2cc(F)c(N3CCN(C)CC3)cc21 | 2.7 to 8.6
CCn1cc(-c2nnc(SC/C(=N/NC(N)=S)c3ccc(Cl)cc3)[nH]2)c(=O)c2cc(F)c(N3CCN(C)CC3)cc21 | 2.7 to 27.6
CCn1cc(-c2nnc(SC/C(=N/NC(N)=S)c3ccc(C)cc3)[nH]2)c(=O)c2cc(F)c(N3CCN(C)CC3)cc21 | 2.7 to 27.6
CCn1cc(-c2nnc(SC/C(=N/NC(N)=S)c3ccccc3OC)[nH]2)c(=O)c2cc(F)c(N3CCN(C)CC3)cc21 | 2.7 to 27.6
CCn1cc(-c2nnc(SC/C(=N/NC(N)=S)c3ccc([N+](=O)[O-])cc3)[nH]2)c(=O)c2cc(F)c(N3CCN(C)CC3)cc21 | 2.7 to 27.6
CCn1cc(-c2nnc(SC/C(=N/NC(N)=S)c3ccccc3O)[nH]2)c(=O)c2cc(F)c(N3CCN(C)CC3)cc21 | 2.7 to 8.6
CCn1cc(-c2nnc(SC/C(=N/NC(N)=S)c3ccc4c(c3)OCO4)[nH]2)c(=O)c2cc(F)c(N3CCN(C)CC3)cc21 | 2.7 to 27.6
CCn1cc(-c2nnc(SC/C(=N/NC(N)=S)c3ccccc3)[nH]2)c(=O)c2cc(F)c(N3CCN(C)CC3)cc21 | 2.7 to 27.6
CCn1cc(-c2nnc(SC/C(=N/NC(N)=S)c3ccc(OC)c(OC)c3)[nH]2)c(=O)c2cc(F)c(N3CCN(C)CC3)cc21 | 2.7 to 27.6
CCn1cc(-c2nnc(SC/C(=N/NC(N)=S)c3ccc(OC)cc3)[nH]2)c(=O)c2cc(F)c(N3CCN(C)CC3)cc21 | 2.7 to 27.6

Each compound was assayed on HL-60 (assay: Cytotoxicity against human HL60 cells assessed as reduction in cell viability).
Format: functional, cell-based

SMILES | IC50 [µM]
CCn1cc(-c2nnc(SC/C(=N/NC(N)=S)c3ccc(F)cc3)[nH]2)c(=O)c2cc(F)c(N3CCN(C)CC3)cc21 | 2.7 to 8.6
Cc1ccc(/C=c2\sc3nc(-c4cn(C5CC5)c5cc(N6CCN(C)CC6)c(F)cc5c4=O)nn3c2=O)cc1 | > 10
CCn1cc(C(=O)O)c(=O)c2cc(F)c(N3CCN(C)CC3)cc21 [PEFLOXACIN] | > 100
CCn1cc(-c2nnc(SC/C(=N/NC(N)=S)c3ccc(O)cc3)[nH]2)c(=O)c2cc(F)c(N3CCN(C)CC3)cc21 | 2.7 to 8.6
CCn1cc(-c2nnc(SC/C(=N/NC(N)=S)c3ccc(O)c(OC)c3)[nH]2)c(=O)c2cc(F)c(N3CCN(C)CC3)cc21 | 2.7 to 8.6
CCn1cc(-c2nnc(SC/C(=N/NC(N)=S)c3ccc(Cl)cc3)[nH]2)c(=O)c2cc(F)c(N3CCN(C)CC3)cc21 | 2.7 to 27.6
CN1CCN(c2cc3c(cc2F)c(=O)c(-c2nc4s/c(=C\c5ccc(C(=O)O)cc5)c(=O)n4n2)cn3C2CC2)CC1 | 0.3 to 8.4
CN1CCN(c2cc3c(cc2F)c(=O)c(-c2nc4s/c(=C\c5cccc(C#N)c5)c(=O)n4n2)cn3C2CC2)CC1 | > 10
CCn1cc(-c2nnc(SC/C(=N/NC(N)=S)c3ccc(C)cc3)[nH]2)c(=O)c2cc(F)c(N3CCN(C)CC3)cc21 | 2.7 to 27.6
CCn1cc(-c2nnc(SC/C(=N/NC(N)=S)c3ccccc3OC)[nH]2)c(=O)c2cc(F)c(N3CCN(C)CC3)cc21 | 2.7 to 27.6
CCn1cc(-c2nnc(SC/C(=N/NC(N)=S)c3ccc([N+](=O)[O-])cc3)[nH]2)c(=O)c2cc(F)c(N3CCN(C)CC3)cc21 | 2.7 to 27.6
CCn1cc(-c2nnc(SC/C(=N/NC(N)=S)c3ccccc3O)[nH]2)c(=O)c2cc(F)c(N3CCN(C)CC3)cc21 | 2.7 to 8.6
CCn1cc(-c2nnc(SC/C(=N/NC(N)=S)c3ccc4c(c3)OCO4)[nH]2)c(=O)c2cc(F)c(N3CCN(C)CC3)cc21 | 2.7 to 27.6
CCn1cc(-c2nnc(SC/C(=N/NC(N)=S)c3ccccc3)[nH]2)c(=O)c2cc(F)c(N3CCN(C)CC3)cc21 | 2.7 to 27.6
CCn1cc(-c2nnc(SC/C(=N/NC(N)=S)c3ccc(OC)c(OC)c3)[nH]2)c(=O)c2cc(F)c(N3CCN(C)CC3)cc21 | 2.7 to 27.6
CCn1cc(-c2nnc(SC/C(=N/NC(N)=S)c3ccc(OC)cc3)[nH]2)c(=O)c2cc(F)c(N3CCN(C)CC3)cc21 | 2.7 to 27.6

The compounds below were run on CAPAN-1 (assay: Cytotoxicity against human Capan1 cells assessed as reduction in cell viability).
Format: functional, cell-based

SMILES | IC50 [µM]
Cc1ccc(/C=c2\sc3nc(-c4cn(C5CC5)c5cc(N6CCN(C)CC6)c(F)cc5c4=O)nn3c2=O)cc1 | > 10
CN1CCN(c2cc3c(cc2F)c(=O)c(-c2nc4s/c(=C\c5ccc(C(=O)O)cc5)c(=O)n4n2)cn3C2CC2)CC1 | 0.3 to 8.4
CN1CCN(c2cc3c(cc2F)c(=O)c(-c2nc4s/c(=C\c5cccc(C#N)c5)c(=O)n4n2)cn3C2CC2)CC1 | > 10

The compounds below were run on Hep 3B2 (assay: Cytotoxicity against human Hep3B cells assessed as reduction in cell viability).
Format: functional, cell-based

SMILES | IC50 [µM]
Cc1ccc(/C=c2\sc3nc(-c4cn(C5CC5)c5cc(N6CCN(C)CC6)c(F)cc5c4=O)nn3c2=O)cc1 | > 10
CN1CCN(c2cc3c(cc2F)c(=O)c(-c2nc4s/c(=C\c5ccc(C(=O)O)cc5)c(=O)n4n2)cn3C2CC2)CC1 | 0.3 to 8.4
CN1CCN(c2cc3c(cc2F)c(=O)c(-c2nc4s/c(=C\c5cccc(C#N)c5)c(=O)n4n2)cn3C2CC2)CC1 | > 10

What follows are compounds tested on SMMC-7721 (assay: Cytotoxicity against human SMMC7721 cells assessed as reduction in cell viability).
Format: functional, cell-based

SMILES | IC50 [µM]
CCn1cc(-c2nnc(SC/C(=N/NC(N)=S)c3ccc(F)cc3)[nH]2)c(=O)c2cc(F)c(N3CCN(C)CC3)cc21 | 2.7 to 8.6
CCn1cc(C(=O)O)c(=O)c2cc(F)c(N3CCN(C)CC3)cc21 [PEFLOXACIN] | > 100
CCn1cc(-c2nnc(SC/C(=N/NC(N)=S)c3ccc(O)cc3)[nH]2)c(=O)c2cc(F)c(N3CCN(C)CC3)cc21 | 2.7 to 8.6
CCn1cc(-c2nnc(SC/C(=N/NC(N)=S)c3ccc(O)c(OC)c3)[nH]2)c(=O)c2cc(F)c(N3CCN(C)CC3)cc21 | 2.7 to 8.6
CCn1cc(-c2nnc(SC/C(=N/NC(N)=S)c3ccc(Cl)cc3)[nH]2)c(=O)c2cc(F)c(N3CCN(C)CC3)cc21 | 2.7 to 27.6
CCn1cc(-c2nnc(SC/C(=N/NC(N)=S)c3ccc(C)cc3)[nH]2)c(=O)c2cc(F)c(N3CCN(C)CC3)cc21 | 2.7 to 27.6
CCn1cc(-c2nnc(SC/C(=N/NC(N)=S)c3ccccc3OC)[nH]2)c(=O)c2cc(F)c(N3CCN(C)CC3)cc21 | 2.7 to 27.6
CCn1cc(-c2nnc(SC/C(=N/NC(N)=S)c3ccc([N+](=O)[O-])cc3)[nH]2)c(=O)c2cc(F)c(N3CCN(C)CC3)cc21 | 2.7 to 27.6
CCn1cc(-c2nnc(SC/C(=N/NC(N)=S)c3ccccc3O)[nH]2)c(=O)c2cc(F)c(N3CCN(C)CC3)cc21 | 2.7 to 8.6
CCn1cc(-c2nnc(SC/C(=N/NC(N)=S)c3ccc4c(c3)OCO4)[nH]2)c(=O)c2cc(F)c(N3CCN(C)CC3)cc21 | 2.7 to 27.6
CCn1cc(-c2nnc(SC/C(=N/NC(N)=S)c3ccccc3)[nH]2)c(=O)c2cc(F)c(N3CCN(C)CC3)cc21 | 2.7 to 27.6
CCn1cc(-c2nnc(SC/C(=N/NC(N)=S)c3ccc(OC)c(OC)c3)[nH]2)c(=O)c2cc(F)c(N3CCN(C)CC3)cc21 | 2.7 to 27.6
CCn1cc(-c2nnc(SC/C(=N/NC(N)=S)c3ccc(OC)cc3)[nH]2)c(=O)c2cc(F)c(N3CCN(C)CC3)cc21 | 2.7 to 27.6
